Reference: ChEMBL document CHEMBL1201862, “PubChem BioAssay data set” (2004)
Calls of active or inactive are those of the source.

Columns and labels:
[1] = biological target: Nucleotide-binding oligomerization domain-containing protein 2 (Homo sapiens, UniProt Q9HC29); experiment: NOD2 signaling inhibitors, cell-based, luminescence, uHTS, HEK293 (AID 1566); format: functional
HEK293 [2] = experiment: NOD1 signaling inhibitors, primary screen, cell-based, luminescence, uHTS (AID 1578); format: functional; conditions: Homo sapiens
HEK293 [3] = experiment: cells; format: functional, cell-based; conditions: Homo sapiens
BJ [4] = experiment: cytotoxicity toward BJ-TERT-LT-ST fibroblasts, dose response, cell-based, RAS-independent, luminescence (AID 1935); format: functional; conditions: Homo sapiens;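 note: BJ fibroblasts immortalized with TERT plus LT and ST oncogenes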
HEK293 [5] = experiment: cells; format: functional, cell-based; conditions: Homo sapiens; remark: listed apart in the source
HEK293 [6] = experiment: NOD2 signaling inhibitors in MDP-stimulated cells, cell-based, uHTS, luminescence (AID 2001); format: functional; conditions: Homo sapiens
BJ [7] = experiment: cytotoxicity toward BJ-TERT fibroblasts, dose response, cell-based, RAS-independent, luminescence (AID 1933); format: functional; conditions: Homo sapiens
[8] = biological target: T1, Microphthalmia-associated transcription factor (Homo sapiens, UniProt O75030); experiment: TRPM1 promoter luciferase signal decrease, dose response, MITF inhibitor project, cell-based, SK-MEL-5, cherry-picked, set 3 (AID 493073); format: functional
T1 sequence (O75030 whole entry): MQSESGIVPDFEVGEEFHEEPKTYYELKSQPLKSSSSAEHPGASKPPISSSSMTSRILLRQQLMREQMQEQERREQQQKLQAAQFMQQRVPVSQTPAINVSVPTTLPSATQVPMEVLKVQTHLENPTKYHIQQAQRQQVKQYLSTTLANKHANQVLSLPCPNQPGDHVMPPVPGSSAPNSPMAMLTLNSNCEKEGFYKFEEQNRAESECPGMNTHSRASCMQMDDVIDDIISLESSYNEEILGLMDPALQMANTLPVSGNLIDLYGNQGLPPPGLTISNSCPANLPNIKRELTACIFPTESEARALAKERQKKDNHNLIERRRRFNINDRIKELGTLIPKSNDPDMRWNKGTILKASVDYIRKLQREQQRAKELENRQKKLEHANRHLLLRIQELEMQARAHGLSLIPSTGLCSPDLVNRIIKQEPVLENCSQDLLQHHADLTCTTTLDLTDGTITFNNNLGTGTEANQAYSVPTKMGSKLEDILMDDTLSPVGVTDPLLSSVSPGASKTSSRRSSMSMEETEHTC

[9] = biological target: T2, Replicative DNA helicase DnaB (Mycobacterium tuberculosis, UniProt P9WMR3); experiment: DnaB intein splicing inhibitors, dose response, biochemical, cell-free fluorescence (AID 449749); format: functional
T2 sequence (P9WMR3 whole entry): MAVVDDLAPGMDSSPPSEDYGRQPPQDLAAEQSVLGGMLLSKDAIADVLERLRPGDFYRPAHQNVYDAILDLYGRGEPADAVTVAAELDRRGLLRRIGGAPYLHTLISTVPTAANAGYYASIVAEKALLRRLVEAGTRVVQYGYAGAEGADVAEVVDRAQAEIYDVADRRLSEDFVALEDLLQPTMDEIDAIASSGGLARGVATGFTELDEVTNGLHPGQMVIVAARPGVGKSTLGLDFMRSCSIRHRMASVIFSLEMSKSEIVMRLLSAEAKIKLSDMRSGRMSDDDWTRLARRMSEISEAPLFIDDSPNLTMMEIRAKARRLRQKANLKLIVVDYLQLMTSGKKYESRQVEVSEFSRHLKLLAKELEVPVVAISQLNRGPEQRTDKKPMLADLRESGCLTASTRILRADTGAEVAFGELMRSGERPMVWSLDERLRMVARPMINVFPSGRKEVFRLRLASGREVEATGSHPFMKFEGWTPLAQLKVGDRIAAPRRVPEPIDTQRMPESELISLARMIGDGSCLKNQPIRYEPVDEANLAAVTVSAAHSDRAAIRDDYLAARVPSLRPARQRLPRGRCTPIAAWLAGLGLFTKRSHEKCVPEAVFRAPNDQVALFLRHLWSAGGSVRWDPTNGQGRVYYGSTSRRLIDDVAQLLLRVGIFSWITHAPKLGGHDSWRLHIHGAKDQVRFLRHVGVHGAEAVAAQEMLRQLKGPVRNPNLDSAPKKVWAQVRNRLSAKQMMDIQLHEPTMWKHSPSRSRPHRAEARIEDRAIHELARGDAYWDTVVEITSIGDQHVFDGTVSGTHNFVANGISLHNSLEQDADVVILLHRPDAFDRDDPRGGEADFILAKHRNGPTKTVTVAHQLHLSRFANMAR

Protein RecA = biological target: T3, Protein RecA (Mycobacterium tuberculosis, UniProt P9WHJ3); experiment: Fluorescence Cell-Free Homogeneous Dose Retest to Identify Inhibitors of RecA-Intein Splicing Activity. [Related pubchem assays (depositor defined):AID2097, AID2223, AID489010, AID492950]; format: functional
T3 sequence (P9WHJ3 whole entry): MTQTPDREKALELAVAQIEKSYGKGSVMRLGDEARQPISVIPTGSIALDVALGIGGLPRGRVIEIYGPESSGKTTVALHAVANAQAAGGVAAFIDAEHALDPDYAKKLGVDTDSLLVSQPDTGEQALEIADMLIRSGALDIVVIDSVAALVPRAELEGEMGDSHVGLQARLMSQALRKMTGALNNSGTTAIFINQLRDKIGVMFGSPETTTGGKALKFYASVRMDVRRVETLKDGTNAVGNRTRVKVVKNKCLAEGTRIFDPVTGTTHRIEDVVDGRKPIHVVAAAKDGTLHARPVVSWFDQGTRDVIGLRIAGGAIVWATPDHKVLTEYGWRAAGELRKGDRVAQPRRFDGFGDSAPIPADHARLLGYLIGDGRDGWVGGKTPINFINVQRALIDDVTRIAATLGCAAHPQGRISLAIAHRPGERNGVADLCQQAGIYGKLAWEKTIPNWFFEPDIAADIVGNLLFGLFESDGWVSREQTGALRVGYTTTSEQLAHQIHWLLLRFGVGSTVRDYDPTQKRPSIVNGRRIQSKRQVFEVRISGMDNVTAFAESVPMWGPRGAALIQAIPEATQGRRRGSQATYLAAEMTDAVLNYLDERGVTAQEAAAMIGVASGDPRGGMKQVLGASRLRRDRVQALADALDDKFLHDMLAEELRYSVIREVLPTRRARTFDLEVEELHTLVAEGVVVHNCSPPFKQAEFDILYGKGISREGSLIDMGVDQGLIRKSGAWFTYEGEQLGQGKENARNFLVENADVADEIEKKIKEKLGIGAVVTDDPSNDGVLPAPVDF

HEK293 [10] = experiment: cells; format: functional, cell-based; conditions: Homo sapiens; remark: listed apart in the source
[11] = cytotoxicity toward DRD oncogenic fibroblasts, dose response, cell-based, non-viral oncogenic, luminescence (AID 1934); format: functional; conditions: Homo sapiens
BJ [12] = experiment: cells; format: functional, cell-based; conditions: Homo sapiens
[13] = biological target: Glyceraldehyde-3-phosphate dehydrogenase (Homo sapiens, UniProt P04406)
[14] = biological target: T4, Alkaline phosphatase, tissue-nonspecific isozyme (Homo sapiens, UniProt P05186); experiment: human TNAP enzyme inhibitors, SAR follow-up, biochemical, luminescent, dose response (AID 1056)
T4 sequence (P05186 whole entry): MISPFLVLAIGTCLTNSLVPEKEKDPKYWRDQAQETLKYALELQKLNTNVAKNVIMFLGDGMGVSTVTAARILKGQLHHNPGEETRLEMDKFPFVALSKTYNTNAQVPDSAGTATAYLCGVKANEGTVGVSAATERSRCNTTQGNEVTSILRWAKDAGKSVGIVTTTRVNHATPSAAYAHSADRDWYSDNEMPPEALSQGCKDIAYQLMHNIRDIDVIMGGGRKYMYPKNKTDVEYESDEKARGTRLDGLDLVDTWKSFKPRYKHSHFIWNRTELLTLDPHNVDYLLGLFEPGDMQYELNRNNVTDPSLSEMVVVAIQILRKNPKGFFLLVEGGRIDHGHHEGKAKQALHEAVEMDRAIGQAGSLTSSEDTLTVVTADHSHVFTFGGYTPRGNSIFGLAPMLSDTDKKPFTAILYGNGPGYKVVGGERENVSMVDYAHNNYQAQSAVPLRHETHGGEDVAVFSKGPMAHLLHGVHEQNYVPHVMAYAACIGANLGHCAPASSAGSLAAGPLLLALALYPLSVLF

Sequence of Nucleotide-binding oligomerization domain-containing protein 2 (Q9HC29 whole entry, the tested form may be a part): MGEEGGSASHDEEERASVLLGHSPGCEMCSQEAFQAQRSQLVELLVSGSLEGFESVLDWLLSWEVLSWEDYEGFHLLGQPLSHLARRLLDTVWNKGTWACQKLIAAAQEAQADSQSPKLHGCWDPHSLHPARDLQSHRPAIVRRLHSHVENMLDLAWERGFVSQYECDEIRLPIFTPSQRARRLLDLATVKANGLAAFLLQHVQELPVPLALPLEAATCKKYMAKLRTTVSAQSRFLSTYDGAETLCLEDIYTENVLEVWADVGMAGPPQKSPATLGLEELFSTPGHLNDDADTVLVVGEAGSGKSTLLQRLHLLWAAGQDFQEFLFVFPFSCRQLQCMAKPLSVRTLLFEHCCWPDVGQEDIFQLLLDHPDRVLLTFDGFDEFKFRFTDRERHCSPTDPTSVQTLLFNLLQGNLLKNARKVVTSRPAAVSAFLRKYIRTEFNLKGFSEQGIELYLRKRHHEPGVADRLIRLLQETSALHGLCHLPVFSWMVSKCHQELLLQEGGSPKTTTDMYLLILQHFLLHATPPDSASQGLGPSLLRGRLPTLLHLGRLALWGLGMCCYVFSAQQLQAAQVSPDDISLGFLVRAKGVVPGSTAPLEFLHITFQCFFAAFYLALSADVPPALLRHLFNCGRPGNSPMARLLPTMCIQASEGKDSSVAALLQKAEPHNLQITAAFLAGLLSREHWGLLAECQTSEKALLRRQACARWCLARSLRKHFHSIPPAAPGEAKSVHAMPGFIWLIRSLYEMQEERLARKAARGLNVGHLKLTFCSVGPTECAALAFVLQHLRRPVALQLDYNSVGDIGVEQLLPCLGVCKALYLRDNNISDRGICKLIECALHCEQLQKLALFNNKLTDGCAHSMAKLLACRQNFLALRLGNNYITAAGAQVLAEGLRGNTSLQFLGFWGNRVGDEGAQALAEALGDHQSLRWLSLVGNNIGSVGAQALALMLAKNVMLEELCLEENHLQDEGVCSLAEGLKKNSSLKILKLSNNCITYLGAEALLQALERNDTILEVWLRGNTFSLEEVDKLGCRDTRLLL
Sequence of Glyceraldehyde-3-phosphate dehydrogenase (P04406 whole entry): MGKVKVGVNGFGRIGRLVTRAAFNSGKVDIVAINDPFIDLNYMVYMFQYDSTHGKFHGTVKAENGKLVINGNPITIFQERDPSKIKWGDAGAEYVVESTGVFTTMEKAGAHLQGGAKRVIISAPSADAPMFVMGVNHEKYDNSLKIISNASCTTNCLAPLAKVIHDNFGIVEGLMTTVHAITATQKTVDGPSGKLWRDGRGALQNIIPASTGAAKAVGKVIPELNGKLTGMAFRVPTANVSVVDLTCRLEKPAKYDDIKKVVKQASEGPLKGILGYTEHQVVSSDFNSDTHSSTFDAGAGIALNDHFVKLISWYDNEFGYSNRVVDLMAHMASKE

Row | SMILES | EC50 [1] | EC50 (HEK293 [2]) | IC50 (HEK293 [3]) | EC50 (BJ [4]) | IC50 (HEK293 [5]) | IC50 (HEK293 [6]) | EC50 (BJ [7]) | AC50 [8] | AC50 [9] | EC50 (Protein RecA) | IC50 (HEK293 [10]) | EC50 [11] | EC50 (BJ [12]) | IC50 [13] | IC50 [14]
1 | O=C(CCl)Nc1cccc(S(=O)(=O)N2CCCCCC2)c1 | 19.6 µM (active) | 10.1 µM (active) | > 20 µM (inactive) | 10.7 µM (active) | 4.83 µM (active) | 8.19 µM (active) | 4.64 µM (inconclusive) | 11.8 µM (active) | 23.5 µM (active) | 22.6 µM (active) | > 20 µM (inactive) | 9.38 µM (active) | 22 µM (active) |  | 
2 | COc1ccc(C(C)C)cc1S(=O)(=O)Nc1cccnc1 |  |  |  |  |  |  |  |  |  |  |  |  |  | > 100 µM (not active) | > 100 µM (inactive)
